Source: PubChem BioAssay AID248 (DTP/NCI, 2004)
“And” between values parts separate entries of the source, which are not always exact repeats. Identical values can stand only once. Inconclusive results and toxic doses are left out. Cut-off read from the data, not from the text of the source: active = T/C of 150% or more; inactive = T/C below 125%.

Tested on: L1210 leukemia ip in BDF1 mice, survival T/C
Assay: NCI In Vivo Anticancer Drug Screen. Data for tumor model L1210 Leukemia (intraperitoneal) in B6D2F1 (BDF1) mice
Details: endpoint: mean survival time, higher = longer survival
In short: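 Antitumor effect is assessed in tumor-bearing animals. Survival in the compound arm is compared with a vehicle-dosed control arm and expressed as their quotient.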

[1] = dose: 100.0 mg/kg/injection, schedule: Q01DX009 (ip), vehicle: saline with Tween-80
[2] = dose: 100.0 mg/kg/injection, schedule: Q04DX003 (ip), vehicle: saline with Tween-80
[3] = dose: 200.0 mg/kg/injection, schedule: Q04DX003 (ip), vehicle: saline with Tween-80
[4] = dose: 400.0 mg/kg/injection, schedule: Q04DX003 (ip), vehicle: saline with Tween-80
[5] = dose: 50.0 mg/kg/injection, schedule: Q04DX003 (ip), vehicle: saline with Tween-80
[6] = dose: 400.0 mg/kg/injection, schedule: Q04DX002 (ip), vehicle: saline with Tween-80
[7] = dose: 400.0 mg/kg/injection, schedule: Q01DX001 (ip), vehicle: saline
[8] = dose: 100.0 mg/kg/injection, schedule: Q01DX001 (ip), vehicle: other
[9] = dose: 200.0 mg/kg/injection, schedule: Q01DX001 (ip), vehicle: other
[10] = dose: 400.0 mg/kg/injection, schedule: Q01DX001 (ip), vehicle: other

Measured: T/C

Nc1c(Cl)ncnc1Nc1ccc([N+](=O)[O-])cc1
inactive: dose: 100.0 mg/kg/injection, schedule: Q01DX001 (ip), vehicle: Klucel (hydroxypropylcellulose) (HPC) 89 % of control | dose: 200.0 mg/kg/injection, schedule: Q01DX001 (ip), vehicle: Klucel (hydroxypropylcellulose) (HPC) 94 % of control | dose: 400.0 mg/kg/injection, schedule: Q01DX001 (ip), vehicle: Klucel (hydroxypropylcellulose) (HPC) 92 % of control

Nc1cccc(CCCCOc2ccccc2)c1
inactive: [1] 97 % of control | [2] 97 % of control | dose: 200.0 mg/kg/injection, schedule: Q01DX009 (ip), vehicle: saline with Tween-80 98 % of control | [3] 103 % of control | [4] 105 % of control

C=CCN(CC=C)c1nc(OC)nc(OC)n1
inactive: dose: 25.0 mg/kg/injection, schedule: Q01DX009 (ip), vehicle: saline with Tween-80 92 % of control | dose: 25.6 mg/kg/injection, schedule: Q04DX002 (ip), vehicle: saline with Tween-80 97 % of control | dose: 50.0 mg/kg/injection, schedule: Q01DX009 (ip), vehicle: saline with Tween-80 94 % of control | [5] 95 % of control | dose: 64.0 mg/kg/injection, schedule: Q04DX002 (ip), vehicle: saline with Tween-80 101 % of control | [1] 94 % of control | [2] 95 % of control and 103 % of control | dose: 160.0 mg/kg/injection, schedule: Q04DX002 (ip), vehicle: saline with Tween-80 101 % of control | [3] 92 % of control | [6] 101 % of control

COc1cccc(CCOC(C)=O)c1
inactive: dose: 100.0 mg/kg/injection, schedule: Q04DX002 (ip), vehicle: saline with Tween-80 94 % of control | dose: 200.0 mg/kg/injection, schedule: Q04DX002 (ip), vehicle: saline with Tween-80 108 % of control | [6] 97 % of control

CN(C)c1ncnc2c1nnn2C1OC(CO)C(O)C1O (configuration not stated)
inactive: dose: 178.0 mg/kg/injection, schedule: Q01DX001 (ip), vehicle: saline 106 % of control | dose: 267.0 mg/kg/injection, schedule: Q01DX001 (ip), vehicle: saline 106 % of control | [7] 117 % of control

O=C(Nc1ncccn1)Nc1ccccc1C(F)(F)F
inactive: dose: 100.0 mg/kg/injection, schedule: Q01DX009 (ip), vehicle: gum acacia 88 % of control | dose: 200.0 mg/kg/injection, schedule: Q01DX009 (ip), vehicle: gum acacia 86 % of control | dose: 400.0 mg/kg/injection, schedule: Q01DX009 (ip), vehicle: gum acacia 88 % of control

C=C(Br)CNC(=O)NCCN1CCOCC1
inactive: [2] 97 % of control | [3] 111 % of control | [4] 97 % of control

O=c1[nH]c(=S)n2ncnc2[nH]1
inactive: [2] 109 % of control | [3] 102 % of control | [4] 95 % of control

O=C1OC(c2ccccc2)(C2(c3ccccc3)OC(=O)c3ccccc32)c2ccccc21 (configuration not stated)
inactive: dose: 25.0 mg/kg/injection, schedule: Q04DX003 (ip), vehicle: saline with Tween-80 97 % of control | [5] 97 % of control | [2] 90 % of control

CCCCCCCCN(CCCCCCCC)NC(C)=O
inactive: dose: 50.0 mg/kg/injection, schedule: Q01DX001 (ip), vehicle: other 96 % of control | [8] 104 % of control | [9] 96 % of control | [10] 93 % of control

Nc1nc(N)c(CCCCc2ccccc2)c(C=O)n1
inactive: dose: 100.0 mg/kg/injection, schedule: Q01DX009 (ip), vehicle: Klucel (hydroxypropylcellulose) (HPC) 98 % of control

CN1c2cccc[c]2[Sn]([CH3])([CH3])[c]2ccccc21
inactive: [8] 92 % of control | [9] 92 % of control | [10] 108 % of control

Cc1ccc(C(C)(N=[N+]=[N-])c2ccccc2)cc1C (configuration not stated)
inactive: dose: 100.0 mg/kg/injection, schedule: Q01DX001 (ip), vehicle: saline 93 % of control | dose: 200.0 mg/kg/injection, schedule: Q01DX001 (ip), vehicle: saline 96 % of control | [7] 109 % of control
